From ChEMBL document CHEMBL4177586, “Small molecule adjuvants that suppress both chromosomal and mcr-1 encoded colistin-resistance and amplify colistin efficacy in polymyxin-susceptible bacteria” (Bioorg Med Chem, 2017)

Legend:
Acinetobacter baumannii [1] = assay: Antimicrobial activity against Acinetobacter baumannii ATCC 17978 incubated for overnight duration by CLSI based method; assay type: functional, organism-based
Acinetobacter baumannii [2] = assay: Antimicrobial activity against Acinetobacter baumannii SM1536 incubated for overnight duration by CLSI based method; assay type: functional, organism-based
Escherichia coli [3] = assay: Antimicrobial activity against Escherichia coli ATCC 25922 incubated for overnight duration by CLSI based method; assay type: functional, organism-based
Escherichia coli [4] = assay: Antimicrobial activity against Escherichia coli YD626 incubated for overnight duration by CLSI based method; assay type: functional, organism-based
Klebsiella pneumoniae [5] = assay: Antimicrobial activity against Klebsiella pneumoniae 2210291 incubated for overnight duration by CLSI based method; assay type: functional, organism-based
Acinetobacter baumannii [6] = assay: Antimicrobial activity against Acinetobacter baumannii ATCC 17978 expressing mcr1 gene incubated for overnight duration by CLSI based method; assay type: functional, organism-based
Acinetobacter baumannii [7] = assay: Antimicrobial activity against Acinetobacter baumannii SM1536 expressing mcr1 gene incubated for overnight duration by CLSI based method; assay type: functional, organism-based
Escherichia coli [8] = assay: Antimicrobial activity against Escherichia coli ATCC 25922 expressing mcr1 gene incubated for overnight duration by CLSI based method; assay type: functional, organism-based
Escherichia coli [9] = assay: Antimicrobial activity against Escherichia coli YD626 expressing mcr1 gene incubated for overnight duration by CLSI based method; assay type: functional, organism-based
Klebsiella pneumoniae [10] = assay: Antimicrobial activity against Klebsiella pneumoniae 2210291 expressing mcr1 gene incubated for overnight duration by CLSI based method; assay type: functional, organism-based
Acinetobacter baumannii [11] = assay: Potentiation of colistin-induced antimicrobial activity against Acinetobacter baumannii ATCC 17978 expressing mcr1 gene assessed as reduction in colistin MIC at 60 uM incubated for overnight duration by CLSI based method relative to colistin alone control; assay type: functional

Row | Compound | MIC (Acinetobacter baumannii [1]) | MIC (Acinetobacter baumannii [2]) | MIC (Escherichia coli [3]) | MIC (Escherichia coli [4]) | MIC (Klebsiella pneumoniae [5]) | MIC (Acinetobacter baumannii [6]) | MIC (Acinetobacter baumannii [7]) | MIC (Escherichia coli [8]) | MIC (Escherichia coli [9]) | MIC (Klebsiella pneumoniae [10]) | fold change (FC) (Acinetobacter baumannii [11])
1 | COLISTIN | 2 µg/mL | 2 µg/mL | 1 µg/mL | 1 µg/mL | 1 µg/mL | 16 µg/mL | 64 µg/mL | 8 µg/mL | 4 µg/mL | 16 µg/mL | 
2 | O=C(NCCc1c[nH]c2ccccc12)c1cc(Cl)c(Cl)[nH]1 |  |  |  |  |  |  |  |  |  |  | 32
